The supplement of paper PMC10920090

Assays:
MDA-MB-231 [1] = test: drug sensitivity score (DSS), cytotoxicity CellTox Green; higher = more cytotoxic; extreme values may be limits of the assay; conditions: 72 h
MDA-MB-231 [2] = test: drug sensitivity score (DSS), cell viability CellTiter-Glo; higher = more sensitive; extreme values may be limits of the assay; conditions: 72 h
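For drug sensitivity score (DSS), cytotoxicity CellTox Green in this document: DSS summarises each dose–response curve by combining IC50, EC50, maximal inhibition and efficacy across drug concentrations.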

Compound | drug sensitivity score (MDA-MB-231 [1]; shRNA: shPPFIA1_1) [DSS] | drug sensitivity score (MDA-MB-231 [1]; shRNA: shScramble) [DSS] | drug sensitivity score (MDA-MB-231 [2]; shRNA: shPPFIA1_1) [DSS] | drug sensitivity score (MDA-MB-231 [2]; shRNA: shScramble) [DSS]
CC(C)n1nc(-c2ccc3oc(N)nc3c2)c2c(N)ncnc21 [MLN-0128] | 0 | 0 | 0.2 | 5
O=P1(N(CCCl)CCCl)NCCCO1 (configuration not stated) [Cyclophosphamide] | 0 | 0 | 0 | 0
C=CCNC1=C2C[C@@H](C)C[C@H](OC)[C@H](O)[C@@H](C)/C=C(\C)[C@H](OC(N)=O)[C@@H](OC)/C=C\C=C(/C)C(=O)NC(=CC1=O)C2=O [Tanespimycin] | 2 | 3.1 | 6.7 | 12.3
COc1cc(N2CCC(N3CCN(C)CC3)CC2)ccc1Nc1ncnc(Nc2ccccc2S(=O)(=O)C(C)C)n1 [ASP3026] | 0 | 0 | 0.3 | 3.7
CCNc1nc(Nc2cc(F)c(C(=O)N3CCOCC3)cc2OC)ncc1C(F)(F)F [GNE-7915] | 0 | 0 | 0 | 0
C[C@@H]1CN(CC(=O)Nc2ccc3c(c2)Cc2cccc(-c4cc(=O)cc(N5CCOCC5)o4)c2S3)C[C@H](C)O1 | 0.2 | 0 | 0 | 3.6
CC(C)(C)C[C@@H]1N[C@@H](C(=O)N[C@H]2CC[C@H](O)CC2)[C@H](c2cccc(Cl)c2F)[C@]12C(=O)Nc1cc(Cl)ccc12 | 0 | 0.7 | 0 | 0
CS(=O)(=O)c1ccc(-c2cnc(N)c(C(=O)Nc3ccccc3)n2)cc1 [VE-821] | 0 | 0 | 0 | 0
Cc1cnc(Nc2ccc(OCCN3CCCC3)cc2)nc1Nc1cccc(S(=O)(=O)NC(C)(C)C)c1 [Fedratinib] | 2.2 | 5.7 | 1.9 | 9.2
CCN(CC)C(=S)SSC(=S)N(CC)CC [Disulfiram] | 6.4 | 7 | 6.5 | 14.3
Cn1ncc(Cl)c1-c1cc(C(=O)N[C@H](CN)Cc2ccc(F)c(F)c2)oc1Cl [Uprosertib] | 0 | 0 | 0 | 0
Cc1cnc(NC(=O)Nc2cc(Br)c(C)cc2OC[C@@H]2CNCCO2)cn1 [Rabusertib] | 0 | 0 | 5.3 | 2
CS(=O)(=O)OCCCCOS(C)(=O)=O [Busulfan] | 0 | 0 | 0 | 0.2
O=S(=O)(c1cccc2cnccc12)N1CCCNCC1 [Fasudil] | 1.6 | 2.1 | 2.6 | 1.4
CNC(=O)c1ccccc1Nc1cc(Nc2ccc(N3CCOCC3)cc2OC)ncc1C(F)(F)F [VS-4718] | 0 | 0 | 0 | 0
CNC(=O)c1cccc2cc(Oc3ccnc4cc(OCC5(N)CC5)c(OC)cc34)ccc12 [Lucitanib] | 0.3 | 1.2 | 0 | 0.7
O=C(O)C1(C(=O)O)CCC1.[NH2-].[NH2-].[Pt+2] [Carboplatin] | 0 | 0 | 0 | 0
CN(C)c1cc2c(cc1Sc1nc3c(N)nccc3n1CCNCC(C)(C)C)OCO2 [CUDC-305] | 3.4 | 3.4 | 8.7 | 13.6
C[C@]12CC[C@@H]3c4ccc(O)cc4C[C@@H](CCCCCCCCC[S+]([O-])CCCC(F)(F)C(F)(F)F)[C@H]3[C@@H]1CC[C@@H]2O (some centres not stated) [Fulvestrant] | 0 | 0 | 0 | 0

Compound | drug sensitivity score (MDA-MB-231 [1]; shRNA: shPPFIA1_1) [DSS] | drug sensitivity score (MDA-MB-231 [1]; shRNA: shScramble) [DSS] | drug sensitivity score (MDA-MB-231 [2]; shRNA: shPPFIA1_1) [DSS] | drug sensitivity score (MDA-MB-231 [2]; shRNA: shScramble) [DSS]
C=CC(=O)Nc1cc2c(Nc3ccc(F)c(Cl)c3)ncnc2cc1OCCCN1CCOCC1 [Canertinib] | 3 | 7.7 | 2.8 | 4.3
O=C(O)CC1CC(c2ccccc2)=NO1 (configuration not stated) [VGX-1027] | 0 | 0 | 0 | 0
CN[C@@H]1C[C@H]2O[C@@](C)([C@@H]1OC)n1c3ccccc3c3c4c(c5c6ccccc6n2c5c31)C(=O)N[C@H]4O [UCN-01] | 16.6 | 12.2 | 17 | 21.4
COC(=O)C[C@](O)(CCCC(C)(C)O)C(=O)O[C@@H]1C(OC)=C[C@]23CCCN2CCc2cc4c(cc2[C@H]13)OCO4 [Omacetaxine] | 11.8 | 18.4 | 11.2 | 22.9
Cc1ccc(-c2cc(C(F)(F)F)nn2-c2ccc(S(N)(=O)=O)cc2)cc1 [Celecoxib] | 0 | 0 | 0 | 0
N[C@@H]1CCCN(c2c(/C=C3\SC(=O)NC3=O)cccc2-c2ccccc2)C1 [AZD1208] | 0 | 0 | 0 | 0
CC(C)C(=O)Nc1ccc([N+](=O)[O-])c(C(F)(F)F)c1 [Flutamide] | 0 | 0 | 0 | 0.3
CC[C@H](C)C(=O)O[C@H]1C[C@H](O)C=C2C=C[C@H](C)[C@H](CC[C@@H](O)C[C@@H](O)CC(=O)O)[C@H]21 [Pravastatin] | 0 | 0 | 2.5 | 1.8
Oc1ncnc2[nH]ncc12 [Allopurinol] | 0 | 0 | 0 | 0
CC1(C)CNc2cc(NC(=O)c3cccnc3NCc3ccncc3)ccc21 [Motesanib] | 0 | 0.3 | 0 | 0
Cc1cc(Nc2nc(N[C@@H](C)c3ncc(F)cn3)ncc2Cl)[nH]n1 [AZD1480] | 0 | 0 | 0 | 0
CC(=O)OC[C@H]1O[C@@H]([S-])[C@H](OC(C)=O)[C@@H](OC(C)=O)[C@@H]1OC(C)=O.CCP(CC)CC.[Au+] [Auranofin] | 0 | 0.4 | 3.2 | 4.2
C#Cc1cccc(Nc2ncnc3cc(OC)c(OCCCCCCC(=O)NO)cc23)c1 [CUDC-101] | 10.2 | 7.4 | 6.2 | 9.8
Cn1c(Nc2ccc(C(F)(F)F)cc2)nc2cc(Oc3ccnc(-c4ncc(C(F)(F)F)[nH]4)c3)ccc21 [RAF265] | 0 | 1.6 | 0 | 1.8
CCN(CC)CCOc1ccc(C(=C(Cl)c2ccccc2)c2ccccc2)cc1 [Clomifene] | 7.9 | 6.1 | 3.7 | 5.1
O=C(O)c1ccc(O)c2ncccc12 [IOX-1] | 0 | 0 | 0 | 0
C[C@]12C=CC(=O)C=C1CC[C@@H]1[C@@H]2[C@@H](O)C[C@@]2(C)[C@H]1CC[C@]2(O)C(=O)CO [Prednisolone] | 0 | 0 | 0 | 0
CCn1c(-c2nonc2N)nc2c(C#CC(C)(C)O)ncc(OC[C@H]3CCCNC3)c21 | 0 | 0 | 0 | 0.2
O=C(c1ccc(/C=C/c2n[nH]c3ccccc23)cc1)N1CCNCC1 [KW-2449] | 0 | 0 | 0 | 0
